≈ marks a conversion by molar mass, not a printed value. Calls of active or inactive are those of the source. The rule behind the calls is not given here.
Tests used:
Pichia kudriavzevii = experiment: Antifungal activity against Candida krusei ATCC 6258 assessed as inhibition of fungal growth incubated for 72 hrs by CLSI based liquid medium microdilution method; assay type: functional
Candida tropicalis = experiment: Antifungal activity against Candida tropicalis ATCC 1369 assessed as inhibition of fungal growth incubated for 72 hrs by CLSI based liquid medium microdilution method; assay type: functional
Aspergillus fumigatus = experiment: Antifungal activity against Aspergillus fumigatus KM8001 assessed as inhibition of fungal growth incubated for 72 hrs by CLSI based liquid medium microdilution method; assay type: functional
Candida albicans [1] = experiment: Antifungal activity against fluconazole-resistant Candida albicans 17# assessed as inhibition of fungal growth incubated for 72 hrs by CLSI based liquid medium microdilution method; assay type: functional
Candida albicans [2] = experiment: Antifungal activity against fluconazole-resistant Candida albicans 632 assessed as inhibition of fungal growth incubated for 72 hrs by CLSI based liquid medium microdilution method; assay type: functional
Candida albicans [3] = experiment: Antifungal activity against fluconazole-resistant Candida albicans 901 assessed as inhibition of fungal growth incubated for 72 hrs by CLSI based liquid medium microdilution method; assay type: functional
Candida albicans [4] = experiment: Antifungal activity against fluconazole-resistant Candida albicans 904 assessed as inhibition of fungal growth incubated for 72 hrs by CLSI based liquid medium microdilution method; assay type: functional
[5] = molecular target: T1, Lanosterol 14-alpha demethylase (Candida albicans (strain SC5314 / ATCC MYA-2876) (Yeast), UniProt P10613); experiment: Inhibition of Candida albicans ATCC SC5314 CYP51 using lanosterol as substrate incubated for 30 mins by HPLC assay
T1 sequence (P10613 whole entry): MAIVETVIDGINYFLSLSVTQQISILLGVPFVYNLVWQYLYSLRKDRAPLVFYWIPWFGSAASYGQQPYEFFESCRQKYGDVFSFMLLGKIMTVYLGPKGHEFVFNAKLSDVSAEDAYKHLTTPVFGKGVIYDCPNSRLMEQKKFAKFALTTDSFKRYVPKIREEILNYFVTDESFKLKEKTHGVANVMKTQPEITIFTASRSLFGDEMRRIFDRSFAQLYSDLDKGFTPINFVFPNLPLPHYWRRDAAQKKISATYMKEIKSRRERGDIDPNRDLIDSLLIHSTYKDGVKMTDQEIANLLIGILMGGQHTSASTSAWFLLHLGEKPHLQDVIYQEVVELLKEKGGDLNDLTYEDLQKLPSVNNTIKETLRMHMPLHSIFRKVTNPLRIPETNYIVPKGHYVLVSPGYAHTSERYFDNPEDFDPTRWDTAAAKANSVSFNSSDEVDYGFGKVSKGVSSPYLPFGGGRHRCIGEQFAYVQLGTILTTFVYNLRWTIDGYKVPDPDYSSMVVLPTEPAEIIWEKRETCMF

[6] = molecular target: T1, Lanosterol 14-alpha demethylase; experiment: Inhibition of Candida albicans ATCC SC5314 CYP51 assessed as ergosterol content at 4 ug/ml measured after 16 hrs by GC-MS analysis (reference value: 92.71%); set-up: scale not given: the % may be the effect or the level left; details: at 4 µg/mL
[7] = molecular target: T1, Lanosterol 14-alpha demethylase; experiment: Inhibition of Candida albicans ATCC SC5314 CYP51 assessed as lanosterol content at 4 ug/ml measured after 16 hrs by GC-MS analysis relative to control; set-up: scale not given: the % may be the effect or the level left; details: at 4 µg/mL
Candida albicans [8] = experiment: Antifungal activity against Candida albicans ATCC SC5314 assessed as decrease in fungal cell density at 1 microM/ml incubated for 48 hrs by absorbance based assay; assay type: functional, organism-based
Candida albicans [9] = experiment: Antifungal activity against Candida albicans ATCC SC5314 assessed as change in osmotic pressure at 1 microM/ml incubated for 48 hrs by absorbance based assay; assay type: functional, organism-based
Candida albicans [10] = experiment: Antifungal activity against Candida albicans ATCC SC5314 assessed as change in structural stability at 1 microM/ml incubated for 48 hrs by absorbance based assay; assay type: functional, organism-based
Candida albicans [11] = experiment: Induction of mitochondrial membrane depolarization in Candida albicans ATCC SC5314 assessed as normal cells at 1 microM/ml incubated for 24 hrs by JC-1 staining based flow cytometry assay (reference value: 94.4 +/- 1.15%); assay type: functional
Candida albicans [12] = experiment: Induction of mitochondrial membrane depolarization in Candida albicans ATCC SC5314 assessed as depolarized cells at 1 microM/ml incubated for 24 hrs by JC-1 staining based flow cytometry assay (reference value: 0.3 to 5.1%); assay type: functional
Candida albicans [13] = experiment: Induction of apoptosis in Candida albicans ATCC SC5314 assessed as normal cells at 1 microM/ml incubated for 48 hrs by Hoechst 33258/PI staining based flow cytometry (Rvb= 94.8 +/- 0.3%); assay type: functional
Candida albicans [14] = experiment: Induction of apoptosis in Candida albicans ATCC SC5314 assessed as early apoptotic cells at 1 microM/ml incubated for 48 hrs by Hoechst 33258/PI staining based flow cytometry (Rvb= 5.1 +/- 0.3%); assay type: functional
Candida albicans [15] = experiment: Induction of apoptosis in Candida albicans ATCC SC5314 assessed as necrotic cells at 1 microM/ml incubated for 48 hrs by Hoechst 33258/PI staining based flow cytometry (Rvb= 0.03 +/- 0.01%); assay type: functional
Candida albicans [16] = experiment: In vivo antifungal activity against Candida albicans ATCC SC5314 infected in BALB/c mouse assessed as increase in body weight at 10 ug, ip for 14 days; assay type: functional, organism-based; details: dose 10.0 µg, time 14.0 day
Candida albicans [17] = experiment: In vivo antifungal activity against Candida albicans ATCC SC5314 infected in BALB/c mouse assessed as shrinkage in infected region at 10 ug, ip for 14 days; assay type: functional, organism-based; details: dose 10.0 µg, time 14.0 day
Candida albicans [18] = experiment: In vivo antifungal activity against Candida albicans ATCC SC5314 infected in BALB/c mouse assessed as decrease in number of exogenous fungal cells at 10 ug, ip for 14 days by H and E staining based microscopy; assay type: functional, organism-based; details: dose 10.0 µg, time 14.0 day
Candida albicans [19] = experiment: In vivo antifungal activity against Candida albicans ATCC SC5314 infected in BALB/c mouse assessed as disappearance of nuclei aggregation at 10 ug, ip for 14 days by GMS staining based microscopy; assay type: functional, organism-based; details: dose 10.0 µg, time 14.0 day
Candida albicans [20] = experiment: In vivo antifungal activity against Candida albicans ATCC SC5314 infected in BALB/c mouse assessed as reversal of cell morphology to normal state at 10 ug, ip for 14 days by GMS staining based microscopy; assay type: functional, organism-based; details: dose 10.0 µg, time 14.0 day
[21] = Toxicity in BALB/c mouse infected with Candida albicans ATCC SC5314 assessed as morphological changes in liver at 10 ug, ip for 14 days by H and E staining based microscopy; assay type: organism-based; details: in vivo, 336 h, dose 10 µg, time 14 day
[22] = Toxicity in BALB/c mouse infected with Candida albicans ATCC SC5314 assessed as morphological changes in spleen at 10 ug, ip for 14 days by H and E staining based microscopy; assay type: organism-based; details: in vivo, 336 h, dose 10 µg, time 14 day
[23] = Toxicity in BALB/c mouse infected with Candida albicans ATCC SC5314 assessed as morphological changes in lung at 10 ug, ip for 14 days by H and E staining based microscopy; assay type: organism-based; details: in vivo, 336 h, dose 10 µg, time 14 day
[24] = Toxicity in BALB/c mouse infected with Candida albicans ATCC SC5314 assessed as morphological changes in kidney at 10 ug, ip for 14 days by H and E staining based microscopy; assay type: organism-based; details: in vivo, 336 h, dose 10 µg, time 14 day
[25] = Toxicity in BALB/c mouse infected with Candida albicans ATCC SC5314 assessed as plasma AST level at 10 ug, ip for 14 days; assay type: organism-based; details: in vivo, 336 h, dose 10 µg, time 14 day
[26] = Toxicity in BALB/c mouse infected with Candida albicans ATCC SC5314 assessed as plasma ALT level at 10 ug, ip for 14 days; assay type: organism-based; details: in vivo, 336 h, dose 10 µg, time 14 day
Candida albicans [27] = experiment: In vivo antifungal activity against Candida albicans ATCC SC5314 infected in BALB/c mouse assessed as decrease in COX2 expression level at 10 ug, ip for 14 days by Western blot analysis; assay type: functional, organism-based; details: dose 10.0 µg, time 14.0 day
Candida albicans [28] = experiment: In vivo antifungal activity against Candida albicans ATCC SC5314 infected in BALB/c mouse assessed as decrease in NLRP3 expression level at 10 ug, ip for 14 days by Western blot analysis; assay type: functional, organism-based; details: dose 10.0 µg, time 14.0 day
Candida albicans [29] = experiment: In vivo antifungal activity against Candida albicans ATCC SC5314 infected in BALB/c mouse assessed as decrease in IFN-gamma expression level at 10 ug, ip for 14 days by Western blot analysis; assay type: functional, organism-based; details: dose 10.0 µg, time 14.0 day
Candida albicans [30] = experiment: In vivo antifungal activity against Candida albicans ATCC SC5314 infected in BALB/c mouse assessed as decrease in COX2 expression level at 10 ug, ip for 14 days by immunohistochemical analysis; assay type: functional, organism-based; details: dose 10.0 µg, time 14.0 day

Row | Structure (SMILES) | MIC50 (Pichia kudriavzevii) | MIC50 (Candida tropicalis) | MIC50 (Aspergillus fumigatus) | MIC50 (Candida albicans [1]) | MIC50 (Candida albicans [2]) | MIC50 (Candida albicans [3]) | MIC50 (Candida albicans [4]) | IC50 [5] | Activity [6] | Activity [7] | Activity (Candida albicans [8]) | Activity (Candida albicans [9]) | Activity (Candida albicans [10]) | Activity (Candida albicans [11]) | Activity (Candida albicans [12]) | Activity (Candida albicans [13]) | Activity (Candida albicans [14]) | Activity (Candida albicans [15]) | Activity (Candida albicans [16]) | Activity (Candida albicans [17]) | further results
1 | CC(C)c1ccc(C(=O)N2CCC(NC(=O)c3nc(-n4ccnc4)c4ccccc4n3)CC2)cc1 | 0.5 µg/mL (≈ 1.07 µM) | 0.25 µg/mL (≈ 0.534 µM) | 2 µg/mL (≈ 4.27 µM) | 2 µg/mL (≈ 4.27 µM) | 1 µg/mL (≈ 2.13 µM) | 4 µg/mL (≈ 8.54 µM) | > 8 µg/mL | 205 nM | 20.92% | 29.53% | Active | Active | Active | 52.3% | 0.1% | 45.3% | 54.5% | 0.03% | Active | Active | Activity (Candida albicans [18]): Active; Activity (Candida albicans [19]): Active; Activity (Candida albicans [20]): Active; Activity [21]: Non-Toxic; Activity [22]: Non-Toxic; Activity [23]: Non-Toxic; Activity [24]: Non-Toxic; Activity [25]: 66.8 IU/L; Activity [26]: 30.5 IU/L; Activity (Candida albicans [27]): Active; Activity (Candida albicans [28]): Active; Activity (Candida albicans [29]): Active; Activity (Candida albicans [30]): Active
2 | OC(Cn1cncn1)(Cn1cncn1)c1ccc(F)cc1F [FLUCONAZOLE] | 1 µg/mL (≈ 3.27 µM) | 0.5 µg/mL (≈ 1.63 µM) | > 8 µg/mL | > 8 µg/mL | > 8 µg/mL | > 8 µg/mL | > 8 µg/mL | 159 nM | 17.84% | 30.06% | Active | Active | Active | 65.4% | 0.28% | 44.6% | 55.3% | 0.02% | Active | Active | Activity (Candida albicans [18]): Active; Activity (Candida albicans [19]): Active; Activity (Candida albicans [20]): Active; Activity [21]: Non-Toxic; Activity [22]: Non-Toxic; Activity [23]: Non-Toxic; Activity [24]: Non-Toxic; Activity [25]: 79.7 IU/L; Activity [26]: 41.9 IU/L; Activity (Candida albicans [27]): Active; Activity (Candida albicans [28]): Active; Activity (Candida albicans [29]): Active; Activity (Candida albicans [30]): Active
3 | CC(=O)c1ccc(C(=O)N2CCC(NC(=O)c3nc(-n4cncn4)c4ccccc4n3)CC2)cc1 | 0.25 µg/mL (≈ 0.532 µM) | 0.25 µg/mL (≈ 0.532 µM) | 1 µg/mL (≈ 2.13 µM) | 1 µg/mL (≈ 2.13 µM) | 1 µg/mL (≈ 2.13 µM) | 4 µg/mL (≈ 8.52 µM) | 2 µg/mL (≈ 4.26 µM) | 263 nM | 18.64% | 32.47% | Active | Active | Active | 42.6% | 1.27% | 42% | 57.9% | 0.02% | Active | Active | Activity (Candida albicans [18]): Active; Activity (Candida albicans [19]): Active; Activity (Candida albicans [20]): Active; Activity [21]: Non-Toxic; Activity [22]: Non-Toxic; Activity [23]: Non-Toxic; Activity [24]: Non-Toxic; Activity [25]: 54.9 IU/L; Activity [26]: 32.3 IU/L; Activity (Candida albicans [27]): Active; Activity (Candida albicans [28]): Active; Activity (Candida albicans [29]): Active; Activity (Candida albicans [30]): Active
